{
  "source": "patent US20170304466A1",
  "about": "“AAV-Based Gene Therapy” (Arthrogen B.V., priority 2014, published 2017)",
  "key": {"mice with CIA [1]": {"tested_on": "mice with CIA", "test": "Arthritis activity clinical score in CIA mice", "assay_type": "in vivo", "protocol": "Collagen induced arthritis (CIA) was induced by means of an intradermal injection of 100 μl collagen type II (2 mg/ml), diluted 1:1 in CFA (mineral oil and heat-killed M. Tuberculosis 2 mg/ml) (Chondrex Inc., Redmond, Wash., USA). On day 21 a booster injection was administered intraperitoneally containing 100 μg collagen type II dissolved in 100 μl NaCl.\nArthritis activity was scored 3-weekly from day 18 on with a semi-quantitative scoring system, each mouse paw was analyzed separately (0—normal; 1—swelling and/or erythema of 1 joint; 2—swelling in multiple joints; 3—swelling of all joints; 4—swelling of whole paw and at least one of the following symptoms: ankylosis, loss of function)."}, "spleen": {"tested_on": "spleen", "test": "Spleen size after triamcinolone in arthritic mice", "assay_type": "in vivo", "protocol": "FIG. 5: Effect of triamcinolone on spleen size and cell populations in different tissues. Arthritis was induced in several groups (n=5 per group), triamcinolone (5 mg/kg) or saline as control was administered intramuscularly on day 22 (2 days before vector administration). […]\nImmunization, intra-articular injections and in vivo imaging were performed under isoflurane anaesthesia (3% isoflurane and oxygen). At the end of the experiments, animals were sacrificed by cardiac puncture under isoflurane anaesthesia, followed by cervical dislocation, after which hind paws, blood, lymph nodes and spleen were collected. The studies were reviewed and approved by the animal care and use committee of the University of Amsterdam (Amsterdam, The Netherlands; Permit Numbers: ART 102881, ART 102656, ART 102793, ART 102948, and ART 103021) and carried out in strict accordance with the recommendations in the Dutch Law on Animal Welfare (Wet op Dierproeven). Animals were maintained under pathogen-free conditions in the animal facility of the University of Amsterdam."}, "mice with CIA [2]": {"tested_on": "mice with CIA", "assay_type": "in vivo", "experimental": "In brief, the plasmid encodes the Fluc gene under the control of the CMV promoter and a human growth hormone polyadenylation signal. The transgene cassette is flanked by AAV-2 inverted terminal repeats and is packaged in capsid from AAV5.[Gao G P et al; PNAS 2002; 11854] The genome containing vector and empty AAV capsid particles were purified by combined chromatography and cesium chloride density gradient centrifugation. […] Vector titers were determined by qPCR and expressed as vector genomes/ml (vg/ml).\nIntra-articular rAAV5 expression was investigated in male DBA mice (8-12 week old; Harlan Sprague Dawley, Horst, The Netherlands) in 5 animal experiments. Mice were injected with rAAV5.CMV.Fluc in both knee joints (with or without injection of ankle joints) and monitored periodically for luciferase expression (from 5 days up till 6 months). For animals without arthritis the vector was administered on day 1, in arthritic animals the vector was injected on day 17 or 24 after immunization, at the onset of disease. Animals received between 1.26e10 and 1.5e10 vg per knee joint (in a volume of 5 μl) and 0.75e10 vg per ankle joint (in a volume of 2.5 μl). Empty capsids were co-administered with the genome containing particles in several groups in a 5:1 or 20:1 ratio (ratio expressed as empty capsids to genome containing vectors). Groups consisted of 5 to 18 animals.\nTwo days prior to vector administration, triamcinolone was administered intra-muscularly (i.m.), similar to the use in RA patients. […] Taking into account the faster metabolic rate in mice (factor 12.5), a dose of 5 mg/kg bodyweight was used, administered in a volume of 50 μl. Control groups received an i.m. injection with 50 μl NaCl. […]\n(§1) Luciferase expression was measured at different time points after vector administration, from day 3 up till 6 months in different experiments. […] Image processing and signal intensity quantification and analysis were performed using M3 Vision (Biospace Lab). […] The number of photons emitted per second per square centimetre per steradian was calculated as a measure of luciferase activity.\nLuminescence over time was investigated using generalized estimating equations (GEE) to allow for longitudinal analysis (including all available longitudinal data and allowing unequal numbers of repeated measurements) (Twisk (2004) Eur. J. Epidemiol. 19(8):769-776). All other statistics were analyzed using Graphpad Prism (Ja Jolla, Calif., USA). […]"}, "healthy mice [3]": {"tested_on": "healthy mice", "test": "Intra-articular rAAV5 luciferase expression, in vivo imaging in healthy mice", "conditions": "AAV5-CMV-Fluc 1.26e10 vg/joint, compared with vector alone, up to week 8", "experimental": "(§2) In brief, the plasmid encodes the Fluc gene under the control of the CMV promoter and a human growth hormone polyadenylation signal. […] The genome containing vector and empty AAV capsid particles were purified by combined chromatography and cesium chloride density gradient centrifugation. […] Vector titers were determined by qPCR and expressed as vector genomes/ml (vg/ml).\nIntra-articular rAAV5 expression was investigated in male DBA mice (8-12 week old; Harlan Sprague Dawley, Horst, The Netherlands) in 5 animal experiments. Mice were injected with rAAV5.CMV.Fluc in both knee joints (with or without injection of ankle joints) and monitored periodically for luciferase expression (from 5 days up till 6 months). […] Empty capsids were co-administered with the genome containing particles in several groups in a 5:1 or 20:1 ratio (ratio expressed as empty capsids to genome containing vectors). […]\nas §1"}, "healthy mice [4]": {"tested_on": "healthy mice", "test": "Intra-articular rAAV2 luciferase expression, in vivo imaging in healthy mice", "conditions": "AAV2-CMV-Fluc 1.26e10 vg/joint, compared with vector alone, up to week 4", "experimental": "as §2\nLuciferase expression was measured at different time points after vector administration, from day 3 up till 6 months in different experiments. D-luciferin potassium-salt substrate (Caliper Life Sciences, Hopkinton, Mass., USA) was injected intraperitoneally (150 mg/kg of body weight, in a volume of approximately 200 μl). Photon counts were acquired 10 minutes after substrate administration for 5 minutes using a cooled charge-coupled device (CCD) camera system (Photon Imager, Biospace Lab, Paris, France). […] Image processing and signal intensity quantification and analysis were performed using M3 Vision (Biospace Lab). […] The number of photons emitted per second per square centimetre per steradian was calculated as a measure of luciferase activity.\nTo test this hypothesis, we performed an experiment were we evaluated if triamcinolone and empty capsid could enhance gene expression from a serotype that is very different from AAV5, that being AAV2. […] Luciferase expression was monitored by live animal IVIS imaging."}, "air pouch membrane": {"tested_on": "air pouch membrane", "test": "Luciferase expression in air pouch synovial inflammation (APSI) model", "assay_type": "in vivo, mice", "conditions": "triamcinolone 5 mg/kg i.m. on d9, vector 3.16e11 vg on d11; assay d30", "protocol": "Air pouches were formed as previously described (O'Boyle et al. (2009) FASEB J. 23 (11): 3906-3916). Briefly, 3 mls of air was injected subcutaneously into the back of each animal. The air pouches were kept inflated by re-injection of air as necessary. rAAV5.CMV.Fluc vector (3.16e11 vg) was administered into the pouch in a volume of 1 ml on d0, d11, or d18 post air pouch formation. For triamcinolone treated animals, triamcinolone was administered (5 mg/kg) by i.m. injection 2 days prior to vector administration on d11. On d30, mice were sacrificed and air pouch membrane was removed and snap frozen. Frozen air pouch tissue was homogenized in passive lysis buffer (Promega) and luciferase was measured by standard luciferase assay (Promega).\nThe air pouch synovial inflammation (APSI) model was initially developed as a way to model human synovium in a mouse. It involves the injection of air under the skin on the back of a mouse. After 6-7 days, a lining membrane will form around this air pouch. This lining is very similar to the synovial lining that forms around the joint cavity, consisting primarily of fibroblast like cells and macrophages. […] We hypothesized that perhaps the macrophages lining the air pouch membrane were inhibiting the transduction of the vector (similar to what we have observed in intra-articular injected vector). […]"}, "[5]": {"tested_on": "macrophages (F4/80+, CD68+)", "test": "FLOW cytometry of macrophages in spleen and synovium of arthritic mice", "assay_type": "in vivo", "conditions": "48 hrs after triamcinolone 5 mg/kg i.m.", "protocol": "Macrophages in spleen and synovium were analyzed by FLOW cytometry. Briefly, synovial cells were extracted by scraping cells from the joint followed by digestion with Liberase/DNase for 30 min at 37° C. Cells were then washed (PBS/EDTA) and passed through a cell strainer. Synovial cells were centrifuged (1400 rpm, 5 min, 4° C.) and resuspended in FACS buffer (PBS+1% BSA). Due to the low number of cells in the synovium, all animals from each group were pooled. Spleen cells were isolated by mechanical disruption and flushing cells through a cell strainer. Red blood cells were lysed by addition of RBC lysis buffer (Life Technologies), followed by 10 min incubation on ice. Cells were centrifuged and resuspended in FACS buffer. Cells (pooled synovium or splenocytes (1e6 cells) were blocked with 5% normal mouse serum (Sanquin) and stained with F4/80-APC and CD68-FITC labeled antibodies (BD Biosciences). Data was acquired on a BD Canto2 and was analyzed using FlowJo software (FLOWJO LLC, Ashland Oreg.)\nTo further investigate the mechanism of action behind the effect of triamcinolone on transgene expression, an ex vivo analysis was carried out on synovial tissue and splenocytes to assess the effect on the numbers and activity of macrophages and other cell types. […]"}},
  "note": "Like-named read-outs stand apart in the source and are kept apart here.",
  "data": [
    {"smiles": "C[C@]12C=CC(=O)C=C1CC[C@H]1[C@@H]3C[C@@H](O)[C@](O)(C(=O)CO)[C@@]3(C)C[C@H](O)[C@@]12F", "note": "[triamcinolone]", "values": [
      {"measurement": "arthritis activity (clinical score)", "setting": "mice with CIA [1]; Example 2, up to 4 weeks", "value": "trend towards reduced arthritis activity"},
      {"measurement": "arthritis activity (clinical score)", "setting": "mice with CIA [1]; Example 3, up till week 4", "value": "arthritis activity was lower"},
      {"measurement": "spleen weight", "setting": "spleen; 3 days after triamcinolone/saline administration", "value": "significantly reduced"},
      {"measurement": "decrease of absolute volume of spleen", "setting": "spleen; after triamcinolone 5 mg/kg i.m., at d25, p=0.0011", "value": 4, "unit": "fold"},
      {"measurement": "rAAV5.CMV.Fluc expression (luminescence)", "setting": "mice with CIA [2]; agent given 48 hours before i.a. vector (triamcinolone 5 mg/kg i.m.; liposomal clodronate 5 μl/g i.v.), over 4 weeks", "value": "improved rAAV5.CMV.Fluc expression"},
      {"measurement": "luciferase expression (generalized estimating equations), compound added separately", "setting": "mice with CIA [2]; followed 6 months", "value": "trend towards increased expression (not significant)"},
      {"measurement": "gene expression (luciferase)", "setting": "mice with CIA [2]; triamcinolone 5 mg/kg locally (i.a.) 2 days prior to i.a. vector + empty capsids 5:1", "value": "enhancement of gene expression"},
      {"measurement": "gene expression (luciferase)", "setting": "mice with CIA [2]; triamcinolone 5 mg/kg systemically (i.m.) 2 days prior to i.a. vector + empty capsids 5:1", "value": "enhancement of gene expression"},
      {"measurement": "intra-articular AAV5 gene expression (luciferase, IVIS)", "setting": "healthy mice [3]", "value": "increased gene expression"},
      {"measurement": "intra-articular AAV2 gene expression (luciferase, IVIS)", "setting": "healthy mice [4]", "value": "increased gene expression"},
      {"measurement": "luciferase expression in air pouch membrane", "setting": "air pouch membrane", "value": "luciferase expression was only observed"},
      {"measurement": "relative percentage of macrophages (CD68+, F4-80+) in the spleen", "setting": "[5]; compared with saline", "value": "remained similar"},
      {"measurement": "percentage of macrophages in the synovium", "setting": "[5]; pooled animals per group", "value": "decreased"}
    ]}
  ]
}
